Earlier results in patent US10532971B2, “4-hydroxybutyric acid analogs” (Concert Pharmaceuticals, Inc., priority 2009, dated 2020).
Where a name gives a salt, the structure may show the parent alone.

Columns and labels:
[1] = in humans
[2] = clinical trials; dose-dependent adverse effects

Compound | half life [1] | rates of headache, nausea, and dizziness [2]
O=C(O)CCCO [4-hydroxybutyric acid, 4-Hydroxybutyric acid] | 30 to 60 min | –
O=C(O)CCCO [sodium oxybate, sodium salt of 4-hydroxybutyric acid] | – | 17-22%
